This note sets out measurements from patent publication US8148373B2, “Compounds” (AstraZeneca AB, priority 2008, dated 2012).

Where a name gives a salt, the structure may show the parent alone. Where only a bound is given, the exact number is not on record here.

Experiment [1] addresses T1, human muscarinic acetylcholine M3 receptor (M3-ACh) (Homo sapiens, UniProt P20309).
T1 construct: expressed in transfected cells; host or cells: CHO-K1 (Chinese Hamster Ovary) cell membranes
Kind of experiment: Muscarinic 3 Receptor Binding Assay ([3H]NMS competition, SPA). The following applies: for IC50: [3H]NMS 0.1 nM, CHO-K1 cell membranes, 16 hours at room temperature, read-out: M3 pIC50 (converted). The essentials: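 Competition SPA binding of 0.1 nM [3H]NMS (quarter Kd) to membranes from CHO-K1 cells expressing human M3, in 20 mM HEPES pH 7.4, 5 mM MgCl2, 1% DMSO. Incubated 16 h at room temperature; non-specific binding with 1 µM atropine. pIC50 from 50% reduction of specific binding.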

The target in experiment [2] is T2, Adrenergic β2 (H292 cells) (Homo sapiens, UniProt P07550).
T2 construct: endogenous in cells; host or cells: H292 cells
T2 sequence (P07550 whole entry): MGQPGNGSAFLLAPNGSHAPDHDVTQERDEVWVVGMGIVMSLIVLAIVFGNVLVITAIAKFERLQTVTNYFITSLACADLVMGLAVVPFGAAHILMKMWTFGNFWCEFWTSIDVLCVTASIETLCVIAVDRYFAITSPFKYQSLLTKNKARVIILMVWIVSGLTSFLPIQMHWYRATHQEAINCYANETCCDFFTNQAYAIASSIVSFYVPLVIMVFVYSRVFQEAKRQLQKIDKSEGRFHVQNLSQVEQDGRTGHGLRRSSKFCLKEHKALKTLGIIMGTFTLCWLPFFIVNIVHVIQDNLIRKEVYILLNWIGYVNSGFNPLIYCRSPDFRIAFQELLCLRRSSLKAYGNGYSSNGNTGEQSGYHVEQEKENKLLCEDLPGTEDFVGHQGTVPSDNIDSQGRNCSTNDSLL
As to the kind of experiment: Assay for Adrenergic β2 Mediated cAMP Production (concentration response, AlphaScreen cAMP detection). The conditions noted are these: for EC50: cAMP production, 60 minutes at room temperature, 300 μM rolipram, read-out: β2 pEC50 (converted); for β2 Intrinsic activity: fraction relative to the maximum activity determined for formoterol. The experiment is classed as cell-based. The essentials:
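H292 cells plated overnight, pre-treated with rolipram (300 μM final) 10 min, then compound 60 min at room temperature in HBSS/10 mM HEPES pH7.4/5 mM glucose, 1% DMSO. Lysate cAMP read by AlphaScreen against a cAMP standard curve; 4-parameter fit gives pEC50 and intrinsic activity as fraction of formoterol maximum.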

T1 sequence (P20309 whole entry): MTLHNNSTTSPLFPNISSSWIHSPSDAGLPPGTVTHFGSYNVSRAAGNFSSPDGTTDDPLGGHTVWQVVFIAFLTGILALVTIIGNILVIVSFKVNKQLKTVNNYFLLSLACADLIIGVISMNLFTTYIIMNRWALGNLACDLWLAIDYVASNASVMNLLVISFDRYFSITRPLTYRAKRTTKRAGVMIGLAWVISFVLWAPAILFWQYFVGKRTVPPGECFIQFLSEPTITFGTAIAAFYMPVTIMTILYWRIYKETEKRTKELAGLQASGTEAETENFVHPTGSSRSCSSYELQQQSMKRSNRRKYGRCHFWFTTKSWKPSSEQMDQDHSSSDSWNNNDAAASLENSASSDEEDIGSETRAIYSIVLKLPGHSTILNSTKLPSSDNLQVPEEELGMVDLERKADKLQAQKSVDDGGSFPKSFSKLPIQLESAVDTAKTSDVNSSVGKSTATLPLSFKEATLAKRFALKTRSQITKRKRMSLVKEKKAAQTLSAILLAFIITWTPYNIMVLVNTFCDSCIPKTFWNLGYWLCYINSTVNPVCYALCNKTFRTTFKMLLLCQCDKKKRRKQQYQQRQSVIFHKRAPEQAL

Take `CC(CCCCCCCN1CCC2(CC1)CN(C(=O)c1csc(C(C)C)n1)CCO2)CNC[C@H](O)c1ccc(O)c2[nH]c(=O)sc12` (stereo partly drawn) [Example 283, 4-Hydroxy-7-((1R)-1-hydroxy-2-(9-(4-(2-isopropylthiazole-4-carbonyl)-1-oxa-4,9-diazaspiro[5.5]undecan-9-yl)-2-methylnonylamino)ethyl)benzo[d]thiazol-2(3H)-one formate]: the IC50 in experiment [1] was 1.26 nM. Further, in experiment [2], the EC50 was 79.4 nM and the “β2 Intrinsic activity” value was 1.1.

Regarding `Cc1nc(C(=O)N2CC(C)(C)OC3(CCN(Cc4cccc(CCNC[C@H](O)c5ccc(O)c6[nH]c(=O)sc56)c4)CC3)C2)cs1` [Example 271, (R)-7-(2-(3-((2,2-Dimethyl-4-(2-methylthiazole-4-carbonyl)-1-oxa-4,9-diazaspiro[5.5]undecan-9-yl)methyl)phenethylamino)-1-hydroxyethyl)-4-hydroxybenzo[d]thiazol-2(3H)-one ditrifluoroacetate], the inhibition at 1 µM in experiment [1] (read-out: M3 inhibtion at 1 μM (printed in the M3 pIC50 column)) came to 30%. In experiment [2], the EC50 is 6.31 nM and the “β2 Intrinsic activity” value turned out to be 1.

`Cc1ccc(C(=O)N2CCOC3(CCN(Cc4ccc(F)c(CCNC[C@H](O)c5ccc(O)c6[nH]c(=O)ccc56)c4F)CC3)C2)s1` [Example 35, (R)-5-(2-(2,6-Difluoro-3-((4-(5-methylthiophene-2-carbonyl)-1-oxa-4,9-diazaspiro[5.5]undecan-9-yl)methyl)phenethylamino)-1-hydroxyethyl)-8-hydroxyquinolin-2(1H)-one ditrifluoroacetate]: the IC50 in experiment [1] was 25.1 nM. In addition, in experiment [2], the EC50 is 12.6 nM and the “β2 Intrinsic activity” value stood at 1.

With `O=C(c1nc2ccccc2s1)N1CCOC2(CCN(CCCCCCCCCNC[C@H](O)c3ccc(O)c4[nH]c(=O)sc34)CC2)C1` [Example 107, (R)-7-(2-(9-(4-(Benzo[d]thiazole-2-carbonyl)-1-oxa-4,9-diazaspiro[5.5]undecan-9-yl)nonylamino)-1-hydroxyethyl)-4-hydroxybenzo[d]thiazol-2(3H)-one formate], the IC50 in experiment [1] is 6.31 nM. For the same compound, in experiment [2], the EC50 was 39.8 nM and the “β2 Intrinsic activity” value is recorded as 0.9.

Turning to `CC(C)c1nc(C(=O)N2CCOC3(CCN(Cc4cccc(CCNC[C@H](O)c5ccc(O)c6[nH]c(=O)ccc56)c4Cl)CC3)C2)cs1` [Example 81, (R)-5-(2-(2-Chloro-3-((4-(2-isopropylthiazole-4-carbonyl)-1-oxa-4,9-diazaspiro[5.5]undecan-9-yl)methyl)phenethylamino)-1-hydroxyethyl)-8-hydroxyquinolin-2(1H)-one ditrifluoroacetate], the IC50 in experiment [1] is 6.31 nM. Besides, in experiment [2], the EC50 was 7.94 nM and the “β2 Intrinsic activity” value came out at 0.7.

Regarding `Cc1nc(C(=O)N2CCOC3(CCN(Cc4cccc(CCNC[C@H](O)c5ccc(O)c6[nH]c(=O)ccc56)c4)CC3)C2)cs1` [Example 7, (R)-8-Hydroxy-5-(1-hydroxy-2-(3-((4-(2-methylthiazole-4-carbonyl)-1-oxa-4,9-diazaspiro[5.5]undecan-9-yl)methyl)phenethylamino)ethyl)quinolin-2(1H)-one ditrifluoroacetate], the IC50 in experiment [1] is 0.501 nM. Also, in experiment [2], the EC50 was 6.31 nM and the “β2 Intrinsic activity” value turned out to be 0.8.

Consider `Cc1ccc(C(=O)N2CCOC3(CN(Cc4cccc(CCNC[C@H](O)c5ccc(O)c6[nH]c(=O)sc56)c4)C3)C2)s1` [Example 33, (R)-4-Hydroxy-7-(1-hydroxy-2-(3-((8-(5-methylthiophene-2-carbonyl)-5-oxa-2,8-diazaspiro[3.5]nonan-2-yl)methyl)phenethylamino)ethyl)benzo[d]thiazol-2(3H)-one ditrifluoroacetate], for which, in experiment [1], the IC50 is 12.6 nM. Also, in experiment [2], the EC50 is 6.31 nM and the “β2 Intrinsic activity” value is 1.

In the case of `CC(C)c1ccc(C(=O)N2CCOC3(CCN(Cc4cccc(CCNC[C@H](O)c5ccc(O)c6[nH]c(=O)sc56)c4F)CC3)C2)s1` [Example 73, (R)-7-(2-(2-Fluoro-3-((4-(5-isopropylthiophene-2-carbonyl)-1-oxa-4,9-diazaspiro[5.5]undecan-9-yl)methyl)phenethylamino)-1-hydroxyethyl)-4-hydroxybenzo[d]thiazol-2(3H)-one ditrifluoroacetate], the IC50 in experiment [1] was 7.94 nM. Moreover, in experiment [2], the EC50 was 7.94 nM and the “β2 Intrinsic activity” value is listed as 0.9.

Consider `CC(C)c1nc(C(=O)N2CC(F)(F)OC3(CCN(Cc4cccc(CCNC[C@H](O)c5ccc(O)c6[nH]c(=O)ccc56)c4)CC3)C2)cs1` [Example 44, (R)-5-(2-(3-((2,2-Difluoro-4-(2-isopropylthiazole-4-carbonyl)-1-oxa-4,9-diazaspiro[5.5]undecan-9-yl)methyl)phenethylamino)-1-hydroxyethyl)-8-hydroxyquinolin-2(1H)-one ditrifluoroacetate], for which, in experiment [1], the IC50 is 3.16 nM. Also, in experiment [2], the EC50 is 2.51 nM and the “β2 Intrinsic activity” value was 1.

For the compound `CCc1cc(C(=O)N2CCOC3(CCN(Cc4cccc(CCNC[C@H](O)c5ccc(O)c6[nH]c(=O)sc56)c4F)CC3)C2)cs1` [Example 91, (R)-7-(2-(3-((4-(5-Ethylthiophene-3-carbonyl)-1-oxa-4,9-diazaspiro[5.5]undecan-9-yl)methyl)-2-fluorophenethylamino)-1-hydroxyethyl)-4-hydroxybenzo[d]thiazol-2(3H)-one ditrifluoroacetate], in experiment [1], the IC50 is 2 nM. In experiment [2], the EC50 was 1.26 nM and the “β2 Intrinsic activity” value was 0.7.

With `CCc1cc(C(=O)N2CCOC3(CCN(Cc4ccc(F)c(CCNC[C@H](O)c5ccc(O)c6[nH]c(=O)sc56)c4)CC3)C2)cs1` [Example 99, (R)-7-(2-(5-((4-(5-Ethylthiophene-3-carbonyl)-1-oxa-4,9-diazaspiro[5.5]undecan-9-yl)methyl)-2-fluorophenethylamino)-1-hydroxyethyl)-4-hydroxybenzo[d]thiazol-2(3H)-one ditrifluoroacetate], the IC50 in experiment [1] is 1.58 nM. Moreover, in experiment [2], the EC50 is 7.94 nM and the “β2 Intrinsic activity” value is given as 0.8.

Consider `Cc1nc(C(=O)N2CCOC3(CCN(CCOc4ccc(CCNC[C@H](O)c5ccc(O)c6[nH]c(=O)sc56)cc4)CC3)C2)cs1` [Example 3, (R)-4-Hydroxy-7-(1-hydroxy-2-(4-(2-(4-(2-methylthiazole-4-carbonyl)-1-oxa-4,9-diazaspiro[5.5]undecan-9-yl)ethoxy)phenethylamino)ethyl)benzo[d]thiazol-2(3H)-one dihydrochloride], for which the IC50 in experiment [1] was 1 nM. In experiment [2], the EC50 was 7.94 nM and the “β2 Intrinsic activity” value amounted to 1.0.

Take `Cc1nc(C(=O)N2CCOC3(CCN(CCOc4cc(C)c(CNC[C@H](O)c5ccc(O)c6[nH]c(=O)ccc56)cc4C)CC3)C2)cs1` [Example 97, (R)-5-(2-(2,5-Dimethyl-4-(2-(4-(2-methylthiazole-4-carbonyl)-1-oxa-4,9-diazaspiro[5.5]undecan-9-yl)ethoxy)benzylamino)-1-hydroxyethyl)-8-hydroxyquinolin-2(1H)-one ditrifluoroacetate]: the IC50 in experiment [1] was 6.31 nM. In experiment [2], the EC50 is more than 3160 nM and the “β2 Intrinsic activity” value is 1.5.

In the case of `Cc1nc(C(=O)N2CCOC3(CCN(CCCCCCCCCNC[C@H](O)c4ccc(O)c5[nH]c(=O)sc45)CC3)C2)cs1` [Example 2, (R)-4-Hydroxy-7-(1-hydroxy-2-(9-(4-(2-methylthiazole-4-carbonyl)-1-oxa-4,9-diazaspiro[5.5]undecan-9-yl)nonylamino)ethyl)benzo[d]thiazol-2(3H)-one ditrifluoroacetate], in experiment [1], the IC50 was 0.316 nM. In experiment [2], the EC50 is 12.6 nM and the “β2 Intrinsic activity” value is recorded as 0.8.

As for `CC(C)c1nc(C(=O)N2CCOC3(CCN(Cc4cccc(CCNC[C@H](O)c5ccc(O)c6[nH]c(=O)ccc56)c4)CC3)C2)cs1` [Example 23, (R)-8-Hydroxy-5-(1-hydroxy-2-(3-((4-(2-isopropylthiazole-4-carbonyl)-1-oxa-4,9-diazaspiro[5.5]undecan-9-yl)methyl)phenethylamino)ethyl)quinolin-2(1H)-one ditrifluoroacetate], in experiment [1], the IC50 was 0.251 nM. Besides, in experiment [2], the EC50 was 15.8 nM and the “β2 Intrinsic activity” value stood at 0.9.

`Cc1nc(C(=O)N2CCOC3(CCN(Cc4ccc(CCNC[C@H](O)c5ccc(O)c6[nH]c(=O)sc56)cc4)CC3)C2)cs1` [Example 16, (R)-4-Hydroxy-7-(1-hydroxy-2-(4-((4-(2-methylthiazole-4-carbonyl)-1-oxa-4,9-diazaspiro[5.5]undecan-9-yl)methyl)phenethylamino)ethyl)benzo[d]thiazol-2(3H)-one ditrifluoroacetate]: in experiment [1], the IC50 was 7.94 nM. Besides, in experiment [2], the EC50 is 15.8 nM and the “β2 Intrinsic activity” value is recorded as 0.9.

In the case of `Cc1ccc(C(=O)N2CCOC3(CCN(Cc4ccc(F)c(CCNC[C@H](O)c5ccc(O)c6[nH]c(=O)sc56)c4F)CC3)C2)s1` [Example 34, (R)-7-(2-(2,6-Difluoro-3-((4-(5-methylthiophene-2-carbonyl)-1-oxa-4,9-diazaspiro[5.5]undecan-9-yl)methyl)phenethylamino)-1-hydroxyethyl)-4-hydroxybenzo[d]thiazol-2(3H)-one ditrifluoroacetate], the IC50 in experiment [1] is 20 nM. Also, in experiment [2], the EC50 is 3.16 nM and the “β2 Intrinsic activity” value came out at 1.
